Results as given in the SangsterLogP compilation.

Assay: from Ebert, E.; Eckhardt, W.; Jakel, K.; Moser, P.; Sozzi, D.; Vogel, C. (1989). Quantitative structure-activity relationships of fungicidally active triazoles: analogs and stereoisomers of propiconazole …
Settings: pH 7.0

Row | SMILES | logD
1 | CCC1COC(Cn2cncn2)(c2ccc(NC(=O)NC)cc2)O1 (stereo not given) | 0.62
2 | OCC1COC(Cn2cncn2)(c2ccc(Cl)cc2Cl)O1 (stereo not given) | 1.76
3 | CC1COC(Cn2cncn2)(c2ccc(-n3cncn3)cc2Cl)O1 (stereo not given) | 1.28
4 | CCC1COC(Cn2cncn2)(c2ccc(Cl)cc2Cl)O1 (stereo not given) | 3.03
5 | COCCOCC1COC(Cn2cncn2)(c2ccc(Cl)cc2Cl)O1 (stereo not given) | 2.03
6 | CCC1COC(Cn2cncn2)(c2ccc(-c3ccccc3)cc2)O1 (stereo not given) | 3.71
7 | CCC1COC(Cn2cncn2)(c2ccc(NC(=O)c3ccc([N+](=O)[O-])cc3)cc2)O1 (stereo not given) | 2.17
8 | CCC1COC(Cn2cncn2)(c2ccc([N+](=O)[O-])cc2)O1 (stereo not given) | 1.52
9 | Cc1ccc(C2(Cn3cncn3)OCCO2)cc1 | 1.55
10 | CCC1COC(Cn2cncn2)(c2ccc(NC(=O)C(F)(F)F)cc2)O1 (stereo not given) | 1.08
